Measured values published in patent US10149887B2, “Peptides and peptidomimetics in combination with t cell activating and/or checkpoint inhibiting agents for cancer treatment” (CanBas Co., Ltd., priority 2015, dated 2018).
Read-outs that look alike come from different tables or passages of the source. Square brackets hold non-standard residues; d marks the D form. Peptide text beside a SMILES is read from it. dPhe(F5) = N[C@H](Cc1c(F)c(F)c(F)c(F)c1F)C(=O)O; dBpa = N[C@H](Cc1ccc(C(=O)c2ccccc2)cc1)C(=O)O; dCha = N[C@H](CC1CCCCC1)C(=O)O

Key:
[1] = test system: MIAPaCa2 human pancreatic carcinoma cells; assay: Colony formation analysis of MIAPaCa2 cells; type: cell-based; conditions: CBP501 10 μmM, cisplatin or oxaliplatin 1, 3 or 9 μg/ml, three hours, then 10 days
Method: Briefly, cells were plated at 300 cells/well in 6 well plates, incubated overnight, and treated with the compounds for three hours. The medium was changed and cultured for an additional 10 days. Cells were subsequently fixed with 70% methanol, stained with 0.1% crystal violet and visualized.

MIAPaCa2 [2] = conditions: three hours exposure
Method: The medium was changed and incubated an additional 24, 48 or 72 hour. Following incubation, 20 μl of alamarBlue 90% reagent was added to each well for another 6 hours for detection of cell viability by fluorescent intensity. Fluorescent intensity was measured using a Spectrafluor Plus plate reader with exitation 530 nm and emission 590 nm. The IC50 was calculated (Table 6).

phospho-eIF2-alpha = assay: CDDP-induced phosphorylation of eIF2-alpha in CT26WT cells (immunoblotting); type: cell-based, murine; conditions: 10-20 uM CDDP with 0.5 μM CBP501, 45 min
Method: A day later, cells were collected and analyzed by immunoblotting using specific antibody against phospho-eIF2-alpha (n=8) (FIG. 22A) and the amount of relative Phospho-eIF2-alpha was quantitated (FIG. 22B). Samples were compared by student's t-test. *P<0.05 **P<0.01, compared with untreated cells, and ^†P<0.05, ^††P<0.01, compared with the corresponding CDDP alone.
(§1) After changing with fresh drug-free medium, cells were incubated for 24, 48, or 72 hours for Immunoblotting analysis of phospho-eIF2-alpha, for calreticulin analysis by FACS, or for HMGB1 ELISA.
Cells were lysed by incubating with a buffer [NaCl (100 mM), Tris-HCl (50 mM, pH 8.0), DTT (1 mM), NP40 (0.5% w/v) containing PhosSTOP Phosphatase Inhibitor Cocktail and Complete Proteinase Inhibitor Cocktail Tablets (Roche Life Science) each diluted to the manufacturer's specified concentrations] at 4° C. for 30 minutes and centrifuged (15 000 rpm, 4° C., 20 minutes). The supernatant (whole-cell lysate) was electrophoresed (SDS-PAGE), and transferred from the gel onto a polyvinylidene difluoride (PVDF) membrane (Millipore) by electroblotting. […] Images were recorded with a Luminescent Image Analyzer LAS-4000 system (Fujifilm) and quantified the band intensity with Multi Gauge software (Fujifilm).

[3] = Mouse serum treatment analysis (residual CBP501 by HPLC); type: in vitro ADME; conditions: CBP501 10 mM, 37 degree
advanced solid tumors = conditions: monotherapy, cited from earlier work
[4] = In vivo half life in mouse serum (HPLC); conditions: 40 mg/kg ip, read-out: Half-life after 40 mg/kg intra-peritoneal injection (converted)
NCI-H520 = assay: G2 checkpoint abrogation by CBP501 combined with cis-platin, flow cytometry; type: cell-based; conditions: NCI-H520, lung, SCC; cis-platin 3 μg/ml 3 hr, then 45 hr
Method: The medium was aspirated, fresh medium without these compounds was added and the cells were incubated for an additional 45 hr. The cells including floating cells were harvested using trypsin-EDTA solution, incubated with Krishan's solution and analyzed for DNA content by flow cytometry as previously described.

RAW264.7 = assay: TNF release from macrophage cell line RAW264.7 (ELISA); type: cell-based, mouse; conditions: 0.1 or 1 μM CBP501, LPS
Method: The released TNF were measured by ELISA.

HMGB1 = HMGB1 secretion from CT26WT cells (ELISA); type: cell-based, murine; conditions: 20 μM CDDP with 0.5 μM CBP501, 45 min
Method: Secreted HMGB1 into the medium was collected at 24, 48 and 72 hours after treatment (n=3). Quantification of the secreted HMGB1 was conducted by HMGB1 ELISA kit II. Samples were compared by student's t-test. *P<0.05 **P<0.01, compared with untreated control cells, and ^†P<0.05, ^††P<0.01, compared with the corresponding CDDP alone.
as §1
The secreted HMGB1 to the medium was quantificated by HMGB1 ELISA kit II (SINO-TEST CORPORATION, kanagawa, Japan) according to manufacturer's instructions.

M1 and M2 macrophages = assay: Phagocytic activity of M1 and M2 macrophages (fluorescent beads, flow cytometry); type: cell-based, human; conditions: in vitro
Method: Referring to FIGS. 19A and 19B, macrophages were obtained by stimulating human peripheral blood mononuclear cells by 0.32 uM of PMA and removing all suspension cells 48 hours of PMA stimulation. The cells were further incubated with 50 ng/ml IFN-gamma, 10 ng/ml LPS to obtain M1 phenotype, and 20 ng/ml IL-4 to obtaine M2 macrophages. Both treatment was with or without CBP501. The phagocytic activity was monitored by using fluorescent labelled beads and flow cytometry.

[5] = test system: thrombin/antithrombin complex; assay: Thrombin/antithrombin complex in plasma of LPS treated mice (ELISA); type: in vivo, mouse; conditions: C57BL/6 mice, CBP501 7.5 mg/kg, plasma 3 hours after
Excerpt: The data were obtained in each condition out of four animals.

CT26WT cells = conditions: 3 hours treatment, two days later
Method: Two days later, the cell cycle phase distribution (Y-axis) and cell death was analyzed by BD FACSCalibur by propidium iodide staining.
For cell cycle analysis, cells collected by trypsine/EDTA (Gibco) were stained with Krishan's buffer (0.1% sodium citrate, 50 Ag/mL propidium iodide, 20 Ag/mL RNase A, 0.5% NP40) followed by flow cytometry using FACSCalibur (Becton Dickinson).

MIAPaCa2 [6] = assay: Sensitization of MIAPaCa2 to bleomycin or adriamycin (sub-G1 population, flow cytometry); type: cell-based, human; conditions: bleomycine 10 μg/ml or adriamycin 1 μg/ml, 3 hours, then 21 hours
Excerpt: FIGS. 3A and 3B Human pancreatic cancer derived cell line MIAPaCa2 treated with (FIG. 3A) bleomycin (Bleo) or (FIG. 3B) adriamycin (ADR) with various doses of compounds. Harvested cells were stained for their DNA and analyzed with flow cytometry. The % population of sub-G1 cells are indicated as dead cells.
The G2 checkpoint abrogating activity of various compounds at different doses on human pancreatic cancer derived cell line MIAPaCa2 treated with bleomycine (Bleo) or adriamycin (ADR) was studied. Briefly, cells were incubated with the compounds and bleomycine (10 μg/ml) or adriamycin (1 μg/ml) for 3 hours. The medium was changed and incubated for an additional 21 hours. Harvested cells were stained for DNA by propium iodide and analyzed with flow cytometry as previously described. The % of the sub-G1 cell population is indicated as dead cells in FIG. 3.

Structure (SMILES): N=C(N)NCCC[C@@H](NC(=O)[C@@H](CCCNC(=N)N)NC(=O)[C@@H](CCC(N)=O)NC(=O)[C@@H](CCCNC(=N)N)NC(=O)[C@@H](CCCNC(=N)N)NC(=O)[C@@H](CCCNC(=N)N)NC(=O)[C@@H](CC1CCCCC1)NC(=O)[C@@H](Cc1c(F)c(F)c(F)c(F)c1F)NC(=O)[C@@H](CO)NC(=O)[C@@H](Cc1c[nH]c2ccccc12)NC(=O)[C@@H](CO)NC(=O)[C@H](N)Cc1ccc(C(=O)c2ccccc2)cc1)C(=O)O [CBP501, (d-Bpa)(d-Ser)(d-Trp)(d-Ser)(d-Phe-2,3,4,5,6-F)(d-Cha)(d-Arg)(d-Arg)(d-Arg)(d-Gln)(d-Arg)(d-Arg)] (H-[dBpa][dS][dW][dS][dPhe(F5)][dCha][dR][dR][dR][dQ][dR][dR]-OH; N-terminus and C-terminus assumed)
- Enhancement of cyto-toxic activity of cisplatin and oxaliplatin, colony formation [1]: enhanced the cyto-toxic activity of both cisplatin and oxaliplatin
- IC50 (MIAPaCa2 [2]; read-out: IC50 24 hr, CBP501 with 10 uM cisplatin, with 10 uM cisplatin, additional 24 hour): 0.6 µM
- IC50 (MIAPaCa2 [2]; read-out: IC50 24 hr, additional 24 hour): 6 µM
- IC50 (MIAPaCa2 [2]; read-out: IC50 48 hr, CBP501 with 10 uM cisplatin, with 10 uM cisplatin, additional 48 hour): 1 µM
- IC50 (MIAPaCa2 [2]; read-out: IC50 48 hr, additional 48 hour): 10 µM
- IC50 (MIAPaCa2 [2]; read-out: IC50 72 hr, CBP501 with 10 uM cisplatin, with 10 uM cisplatin, additional 72 hour): 6 µM
- IC50 (MIAPaCa2 [2]; read-out: IC50 72 hr, additional 72 hour): 13 µM
- CDDP-induced phosphorylation of eIF2-alpha (phospho-eIF2-alpha): augmented
- Residual peptide after 1 hr mouse serum treatment (Mouse serum treatment analysis) [3]: >90%
- Stable disease (advanced solid tumors; 60-min i.v. infusion days 1, 8, 15 every 28 days): Two patients achieved 7 cycles of treatment with stable disease
- Discontinuation due to toxicity (advanced solid tumors; days 1-8-15 every 28 days): No patients discontinued due to toxicity
- Solubility in water (Solubility in water): soluble in water
- half-life [4]: 180 min
- G2 checkpoint abrogating dose of CBP501, cis-platin (NCI-H520): >10 µM
- Cytokine secretion (TNF release) of macrophages (RAW264.7): Inhibition of cytokine secretion
- HMGB1 release, CDDP combined with CBP501 vs CDDP alone (HMGB1): about 2 times
- Phagocytosis of M1 and M2 macrophages (M1 and M2 macrophages): inhibited phagocytosis of both M1 and M2 macrophages
- Thrombin/anti-thrombin complexes in vivo [5]: increased thrombin/anti-thrombin complexes
- Potency in changing cell cycle phase distribution, CDDP combined with CBP501 vs CDDP alone (CT26WT cells): about 2 times
- Sensitization of MIAPaCa2 cells to bleomycin and adriamycin (% sub-G1, dead cells) (MIAPaCa2 [6]): sensitized MIAPaCa2 cells to both bleomycin and adriamycin in a dose dependent manner
